Measured values reported in US12053480B2, “Methods and pharmaceutical compositions for treating peripheral demyelinating diseases” (INSERM (INSTITUT NATIONAL DE LA SANTE ET DE LA RECHERCHE …, priority 2015, dated 2024).

Key:
VDAC1 = target: T1, VDAC1 (Mus musculus, UniProt Q60932); assay: Fluorescent probe imaging of mSC mitochondria in diabetic db/db mice, basal conditions; assay type: in vivo
T1 construct: strongly expressed in mSC mitochondria; from tissue; host or cells: myelinating Schwann cells (mSC) of the sciatic nerve of living mice (wild type; db/db and +/db in A10)
Protocol: Mice were anesthetized with isoflurane inhalation and placed under a Stemi2000 microscope (Zeiss). Incision area was shaved and cleaned using betadine solution. After incision, the gluteus superficialis and biceps femoris muscles were separated to reveal the cavity traversed by the sciatic nerve. The nerve was lift out using spatula and a thin glass needle filled with viral solution (8 μl) was introduced into the nerve with a micromanipulator. This solution was injected over 30 min with short pressure pulses using a Picospritzer III (Parker Hannifin) coupled to a pulse generator. After injection, the nerve was replaced into the cavity, the muscles were readjusted, and the wound was closed using clips (for further details see Gonzalez et al., 2014^3).
TRO19622 drug (Tocris bioscience, Ref. 2906) was diluted in ethanol to 20 mM and then, the solution was diluted in sterile PBS to 20 μM. TRO19622 treatments were realized by 3 mg/kg intraperitoneal (IP) injections of 20 mM solution or by intra sciatic nerve injections of 2 μl of drug solution 2 μM using a Hamilton syringe or a glass needle in sterile conditions 30 minutes before multiphoton image acquisitions or immunohistochemistry and demyelination studies respectively. […] All drug concentrations were previously evaluated by Bordet et al, 2007^5; Goldin et al, 2008^6; Sharov et al, 2007^7. […]

diabetic (db/db) mice = assay: Electrophysiology (CMAP, NCV) in diabetic mice; assay type: in vivo, mouse; conditions: after 30 days of treatment
Protocol: Standard electroneurography was performed before, during and after TRO 19622 drug treatment on CMT1A rats and diabetic mice that were anesthetized with 3% isoflurane. A pair of steel needle electrodes (AD Instruments, MLA1302, Oxford, UK) was placed subcutaneously along the nerve at sciatic notch (proximal stimulation). A second pair of electrodes was placed along the tibial nerve above the ankle (distal stimulation). Supramaximal square wave pulses lasting 10 ms and 1 mA for mice and 3.6 mA for rats were delivered using a PowerLab 26T (AD Instruments, Oxford, UK). Compound muscle action potential (CMAP) was recorded from the intrinsic foot muscles using steel electrodes. Both amplitudes and latencies of CMAP were determined. The distance between the two sites of stimulation was measured alongside the skin surface with fully extended legs, and nerve conduction velocities (NCVs) were calculated automatically from sciatic nerve latency measurements (for further details Fledrich et al., 2014^10).
As previously reported^37, 38, we observed a reduction of the nerve conduction velocity in db/db diabetic mice with no change in the amplitude of the compound of action potentials (CMAP).

phospho-c-jun = assay: Immunohistochemistry of nuclear phospho-c-jun in mSC after nerve crush or MJ; assay type: in vivo, mouse; conditions: immunohistochemistry; TRO19622 30 minutes prior crush
Protocol: The dissected nerve was washed in L15 medium, fixed in Zamboni's fixative (Stefanini et al., 1967^4) for 10 min at room temperature, washed in PBS, and incubated in successive glycerol baths (15, 45, 60, 66% in PBS) for 18 to 24 h each before freezing at −20° C. The nerves were cut in small pieces in 66% glycerol and the perineurium sheet removed. Small bundles of fibers were teased in double-distilled water on Superfrost slides, dried overnight at room temperature, and the slides stored at −20° C. For immunostaining, the teased fibers were incubated for 1 h at room temperature in blocking solution (10% goat serum, 0.2% TritonX100, and 0.01% sodium azide in PBS). Then, the samples were then incubated with anti-ECCD2 primary mouse antibody (1/100, BD biosciences, Ref. 610181), anti-phosphoS63-c-jun primary mouse antibody (1/200, BD Biosciences, Ref. 558036), anti-c-jun primary mouse antibody (1/200, BD Biosciences, Ref. 610326), anti-VDAC primary rabbit antibody (1/100, Cell Signaling, Ref. 4866) or/and MitoTracker Red (1/1000, Molecular Probes, Ref. M7515) in blocking solution overnight at 4° C. The next day, the samples were washed in PBS and incubated for 1 h at room temperature with secondary donkey antibodies coupled to Alexa488, Alexa 594 or Alexa647 (1/1600, Molecular probes) and TO-PRO-3 iodide (50 μM, Invitroge, Ref. T3605). Finally the samples were washed in PBS and mounted in Immu-mount (Thermo Scientific). Images were acquired at room temperature using a 20× or 40× objective, a Zeiss confocal microscope LSM710, and its associated software.
TRO19622 drug (Tocris bioscience, Ref. 2906) was diluted in ethanol to 20 mM and then, the solution was diluted in sterile PBS to 20 μM. TRO19622 treatments were realized by 3 mg/kg intraperitoneal (IP) injections of 20 mM solution or by intra sciatic nerve injections of 2 μl of drug solution 2 μM using a Hamilton syringe or a glass needle in sterile conditions 30 minutes before multiphoton image acquisitions or immunohistochemistry and demyelination studies respectively. Methyl jasmonate drug (Sigma-Aldrich, Ref. 392707) was diluted in 1 ml of sterile PBS to 1M or 3M. Methyl jasmonate treatments were realized by intra sciatic nerve injections of 1 μl of drug solution using a glass needle and micromanipulator in sterile conditions following the same virus injections procedure (see in vivo virus injection in the sciatic nerve method) two hours before multiphoton image acquisition. […] All drug concentrations were previously evaluated by Bordet et al, 2007^5; Goldin et al, 2008^6; Sharov et al, 2007^7.
To go further we also selectively silenced VDAC1 in mSC and measured the expression level of nuclear phospho-c-jun by immunohistochemistry after nerve crush. […]

T1 sequence (Q60932 14-296): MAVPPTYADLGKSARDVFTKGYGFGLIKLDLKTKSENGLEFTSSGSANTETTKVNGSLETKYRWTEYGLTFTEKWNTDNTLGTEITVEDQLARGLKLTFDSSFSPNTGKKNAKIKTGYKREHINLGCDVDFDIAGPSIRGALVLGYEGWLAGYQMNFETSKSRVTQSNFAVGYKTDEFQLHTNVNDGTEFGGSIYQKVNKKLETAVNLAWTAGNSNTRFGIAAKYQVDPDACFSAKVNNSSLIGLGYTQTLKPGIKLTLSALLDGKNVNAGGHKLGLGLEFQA

## CC(C)CCC[C@@H](C)[C@H]1CC[C@H]2[C@@H]3CCC4=C/C(=N\O)CC[C@]4(C)[C@H]3CC[C@]12C [TRO19622, (NZ)—N-[(8S,9S,10R,13R,14S,17R)-10,13-dimethyl-17-[(2R)-6-methylheptan-2-yl]-1,2,6,7,8,9,11,12,14,15,16,17-dodecahydrocyclopenta[a]phenanthren-3-ylidene]hydroxylamine]
VDAC1
  mitochondrial motility: increased
  mitochondrial pH: significantly reduced
Diabetic (db/db) mice
  CMAP amplitude: without change
  nerve conduction velocity: significantly increased to reach control mice velocity
phospho-c-jun
  nuclear phospho-c-jun in mSC after nerve crush: strongly reduced
